Assay results published in EP0535528A1, “Antibacterial 5-Nitro-1-methyl-imidazolyl-3-terbutyl-2-hydroxy-aryl-carbinols” (EURORESEARCH S.r.L., priority 1991, dated 1993).
In brackets after ≈: the same amount, converted by molar mass.

Key:
[1] = test system: Helicobapter pylori; test: Inhibition halos of the bacterial growth (impregnated disks on agar); assay type: cell-based; settings: for activity against the Helicobapter pylori strains used: 10 strains; for Inhibition halo (mm), Average: average of 10 strains
Procedure: Comparison substance: Metronidazole Solubilization of the substances : All the substances to be studied are dissolved at room temperature in DMSO.
Some commercially available antibiogram disks are so impregnated with the above mentioned compounds that each disk has concentration equal to 10, 1, 0.1, 0.01 µg.
10 strains of Helicobapter pylori are used of recent clinical isolation.
Columbia Blood Agar Base is used, containing 5% of defibrinated horse blood, 2 % of calf serum, 2 vials of Vitox per liter of medium and Vancomicine (10 µg/ml) Trimetoprim lactate(5 µg/ml) and Polimixin B (2.5 U/ml).
0.1 ml of a suspension of the different used strains are uniformly distributed onto Petri plates, containing 20 ml of Columbia Blood Agar base, obtained by taking a sample, by means of a platinum loop, of different colonies from a 48 hours culture, grown in anaerobiosis jars with "Gas Pack", without a catalyst and diluted into a physiological solution.
4 disks per plate, previously impregnated with the substances under examination, are then placed onto the agar layer of each plate.
After 48 hours of anaerobiosis incubation, as above described, the inhibition halos of the bacterial growth, produced by the different activity of the substances inside the agar, are evaluated.

[2] = test system: Helicobapter pylori; test: Minimal inhibiting concentration (agar dilution); assay type: cell-based; settings: for MIC50 / MIC90 / MIC range: 10 strains
Procedure: Substances under examination: EU11100, EU11102, EU11103, EU11104. Comparison substance: Metronidazole Solubilization of the substances: All the substances to be studied are dissolved at room temperature in DMSO. […] 10 strains of Helicobapter pylori are used of recent clinical isolation […] The sowing of the bacteria, prepared as described in the preceding test is carried out by means a "multi-point inoculator". After 48 hours incubation under the condition described in the preceding test, the plates are examined and the Minimal Inhibiting Concentration is evaluated, namely that dose corresponding to growth absence.

[3] = test system: Swiss female albino mice; test: Oral and intraperitoneal acute toxicity in mice (LD50, Probits method); assay type: in vivo; settings: mice
Procedure: 20 Swiss female albino mice are used for this test of the average weight of 20 g (±2), coming from Nossan breeding .
Cages: in Makrolon® with saw dust litter, Number of animals per cage: 5 Acclimation period: 1 week Temperature: 22°C (± 2°C) Humidity : 60%, Diet: pellets for mice produced by Nossan firm, Water ad libitum Fast before the treatment: 16 hours
Oral by gastric route and intraperitoneal.
The substances to be studied: EU11100, EU11102, EU11103, EU11104 are treated with 0.5% carboxymethylcellulose in spring water, for the oral administration, whereas the same substances are intraperitoneally administered in the form of a physiological solution .
For each of the above mentioned substances, a mother suspension is prepared having a concentration in the active ingredient of 250 mg/ml for the oral administration, and analogously a mother suspension is prepared for the intraperitoneal administration having a concentration of the desired active principle of 100 mg/ml.
The following doses are used • a) oral route: 5000 mg/kg • b) intraperitoneal route : 2000 mg/kg
If mortality is observed at the above mentioned doses, other doses are administered in order to obtain a dose-response curve.
5 animals are used for every utilized concentration.
After the administration of the above substances the animals are kept under observation for 14 days , during which the mortality and the behaviour is observed.
LD₅₀ is determined on the base of the cumulative mortality observed in the successive 14 days after the administration by using the Probits method.

Cn1c([N+](=O)[O-])cnc1C(O)c1cc(C(C)(C)C)cc(C(C)(C)C)c1O (stereo not shown) [EU11102, 5-nitro-1-methyl-imidazolyl-3,5-diterbutyl-2-hydroxy-phenyl-carbinol]
activity against the Helicobapter pylori strains used ([1]; 1 µg/disk): active against all the Helicobapter pylori used
activity against the Helicobapter pylori strains used ([1]; disk test): active against all the Helicobapter pylori strains used
Inhibition halo (mm), Average ([1]; 1 µg/disk): 15.1 mm
Inhibition halo (mm), Average ([1]; 10 µg/disk): 22.9 mm
Inhibition halo (mm) at the concentration (µg/disk) ([1]; strain 1, 0.01 µg/disk): 0 mm
Inhibition halo (mm) at the concentration (µg/disk) ([1]; strain 1, 0.1 µg/disk): 0 mm
Inhibition halo (mm) at the concentration (µg/disk) ([1]; strain 1, 1 µg/disk): 15 mm
Inhibition halo (mm) at the concentration (µg/disk) ([1]; strain 1, 10 µg/disk): 23 mm
Inhibition halo (mm) at the concentration (µg/disk) ([1]; strain 2, 0.01 µg/disk): 0 mm
Inhibition halo (mm) at the concentration (µg/disk) ([1]; strain 2, 0.1 µg/disk): 0 mm
Inhibition halo (mm) at the concentration (µg/disk) ([1]; strain 2, 10 µg/disk): 22 mm
Inhibition halo (mm) at the concentration (µg/disk) ([1]; strain 3, 0.01 µg/disk): 0 mm
Inhibition halo (mm) at the concentration (µg/disk) ([1]; strain 3, 0.1 µg/disk): 0 mm
Inhibition halo (mm) at the concentration (µg/disk) ([1]; strain 3, 1 µg/disk): 12 mm
Inhibition halo (mm) at the concentration (µg/disk) ([1]; strain 3, 10 µg/disk): 22 mm
Inhibition halo (mm) at the concentration (µg/disk) ([1]; strain 4, 0.01 µg/disk): 0 mm
Inhibition halo (mm) at the concentration (µg/disk) ([1]; strain 4, 0.1 µg/disk): 0 mm
Inhibition halo (mm) at the concentration (µg/disk) ([1]; strain 4, 1 µg/disk): 16 mm
Inhibition halo (mm) at the concentration (µg/disk) ([1]; strain 4, 10 µg/disk): 24 mm
Inhibition halo (mm) at the concentration (µg/disk) ([1]; strain 5, 0.01 µg/disk): 0 mm
Inhibition halo (mm) at the concentration (µg/disk) ([1]; strain 5, 0.1 µg/disk): 0 mm
Inhibition halo (mm) at the concentration (µg/disk) ([1]; strain 5, 1 µg/disk): 16 mm
Inhibition halo (mm) at the concentration (µg/disk) ([1]; strain 5, 10 µg/disk): 22 mm
Inhibition halo (mm) at the concentration (µg/disk) ([1]; strain 6, 0.01 µg/disk): 0 mm
Inhibition halo (mm) at the concentration (µg/disk) ([1]; strain 6, 0.1 µg/disk): 0 mm
Inhibition halo (mm) at the concentration (µg/disk) ([1]; strain 6, 1 µg/disk): 17 mm
Inhibition halo (mm) at the concentration (µg/disk) ([1]; strain 6, 10 µg/disk): 25 mm
Inhibition halo (mm) at the concentration (µg/disk) ([1]; strain 7, 0.01 µg/disk): 0 mm
Inhibition halo (mm) at the concentration (µg/disk) ([1]; strain 7, 0.1 µg/disk): 0 mm
Inhibition halo (mm) at the concentration (µg/disk) ([1]; strain 7, 1 µg/disk): 14 mm
Inhibition halo (mm) at the concentration (µg/disk) ([1]; strain 7, 10 µg/disk): 21 mm
Inhibition halo (mm) at the concentration (µg/disk) ([1]; strain 8, 0.01 µg/disk): 0 mm
Inhibition halo (mm) at the concentration (µg/disk) ([1]; strain 8, 0.1 µg/disk): 0 mm
Inhibition halo (mm) at the concentration (µg/disk) ([1]; strain 8, 1 µg/disk): 15 mm
Inhibition halo (mm) at the concentration (µg/disk) ([1]; strain 8, 10 µg/disk): 23 mm
Inhibition halo (mm) at the concentration (µg/disk) ([1]; strain 9, 0.01 µg/disk): 0 mm
Inhibition halo (mm) at the concentration (µg/disk) ([1]; strain 9, 0.1 µg/disk): 0 mm
Inhibition halo (mm) at the concentration (µg/disk) ([1]; strain 9, 1 µg/disk): 16 mm
Inhibition halo (mm) at the concentration (µg/disk) ([1]; strain 9, 10 µg/disk): 24 mm
Inhibition halo (mm) at the concentration (µg/disk) ([1]; strain 10, 0.01 µg/disk): 0 mm
Inhibition halo (mm) at the concentration (µg/disk) ([1]; strain 10, 0.1 µg/disk): 0 mm
Inhibition halo (mm) at the concentration (µg/disk) ([1]; strain 10, 1 µg/disk): 15 mm
Inhibition halo (mm) at the concentration (µg/disk) ([1]; strain 10, 10 µg/disk): 23 mm
MIC50 [2]: 0.25 µg/mL (≈ 0.692 µM)
MIC90 [2]: 0.5 µg/mL (≈ 1.38 µM)
MIC range [2]: 0.25 to 0.5 µg/mL
MIC ([2]; strain 1): 0.5 µg/mL (≈ 1.38 µM)
MIC ([2]; strain 2): 0.25 µg/mL (≈ 0.692 µM)
MIC ([2]; strain 3): 0.25 µg/mL (≈ 0.692 µM)
MIC ([2]; strain 4): 0.5 µg/mL (≈ 1.38 µM)
MIC ([2]; strain 5): 0.25 µg/mL (≈ 0.692 µM)
MIC ([2]; strain 6): 0.5 µg/mL (≈ 1.38 µM)
MIC ([2]; strain 7): 0.25 µg/mL (≈ 0.692 µM)
MIC ([2]; strain 8): 0.25 µg/mL (≈ 0.692 µM)
MIC ([2]; strain 9): 0.25 µg/mL (≈ 0.692 µM)
MIC ([2]; strain 10): 0.25 µg/mL (≈ 0.692 µM)
toxicity when intraperitoneally administered ([3]; intraperitoneal, 2000 mg/kg): not toxic
toxicity when orally administered ([3]; oral, 5000 mg/kg): not toxic

Cc1ncc([N+](=O)[O-])n1CCO [Metronidazole, reference compound]
activity against the Helicobapter pylori strains used ([1]; 0.1 µg/disk): inactive
activity against the Helicobapter pylori strains used ([1]; 1 µg/disk): inactive
Inhibition halo (mm), Average ([1]; 10 µg/disk): 39.5 mm
activity against Helicobapter pylori ([1]; general statement, at a low concentration): poorly effective
Inhibition halo (mm) at the concentration (µg/disk) ([1]; strain 1, 0.01 µg/disk): 0 mm
Inhibition halo (mm) at the concentration (µg/disk) ([1]; strain 1, 0.1 µg/disk): 0 mm
Inhibition halo (mm) at the concentration (µg/disk) ([1]; strain 1, 1 µg/disk): 0 mm
Inhibition halo (mm) at the concentration (µg/disk) ([1]; strain 1, 10 µg/disk): 45 mm
Inhibition halo (mm) at the concentration (µg/disk) ([1]; strain 2, 0.01 µg/disk): 0 mm
Inhibition halo (mm) at the concentration (µg/disk) ([1]; strain 2, 0.1 µg/disk): 0 mm
Inhibition halo (mm) at the concentration (µg/disk) ([1]; strain 2, 1 µg/disk): 0 mm
Inhibition halo (mm) at the concentration (µg/disk) ([1]; strain 2, 10 µg/disk): 33 mm
Inhibition halo (mm) at the concentration (µg/disk) ([1]; strain 3, 0.01 µg/disk): 0 mm
Inhibition halo (mm) at the concentration (µg/disk) ([1]; strain 3, 0.1 µg/disk): 0 mm
Inhibition halo (mm) at the concentration (µg/disk) ([1]; strain 3, 1 µg/disk): 0 mm
Inhibition halo (mm) at the concentration (µg/disk) ([1]; strain 3, 10 µg/disk): 45 mm
Inhibition halo (mm) at the concentration (µg/disk) ([1]; strain 4, 0.01 µg/disk): 0 mm
Inhibition halo (mm) at the concentration (µg/disk) ([1]; strain 4, 0.1 µg/disk): 0 mm
Inhibition halo (mm) at the concentration (µg/disk) ([1]; strain 4, 1 µg/disk): 0 mm
Inhibition halo (mm) at the concentration (µg/disk) ([1]; strain 4, 10 µg/disk): 42 mm
Inhibition halo (mm) at the concentration (µg/disk) ([1]; strain 5, 0.01 µg/disk): 0 mm
Inhibition halo (mm) at the concentration (µg/disk) ([1]; strain 5, 0.1 µg/disk): 0 mm
Inhibition halo (mm) at the concentration (µg/disk) ([1]; strain 5, 1 µg/disk): 0 mm
Inhibition halo (mm) at the concentration (µg/disk) ([1]; strain 5, 10 µg/disk): 42 mm
Inhibition halo (mm) at the concentration (µg/disk) ([1]; strain 6, 0.01 µg/disk): 0 mm
Inhibition halo (mm) at the concentration (µg/disk) ([1]; strain 6, 0.1 µg/disk): 0 mm
Inhibition halo (mm) at the concentration (µg/disk) ([1]; strain 6, 1 µg/disk): 0 mm
Inhibition halo (mm) at the concentration (µg/disk) ([1]; strain 6, 10 µg/disk): 41 mm
Inhibition halo (mm) at the concentration (µg/disk) ([1]; strain 7, 0.01 µg/disk): 0 mm
Inhibition halo (mm) at the concentration (µg/disk) ([1]; strain 7, 0.1 µg/disk): 0 mm
Inhibition halo (mm) at the concentration (µg/disk) ([1]; strain 7, 1 µg/disk): 0 mm
Inhibition halo (mm) at the concentration (µg/disk) ([1]; strain 7, 10 µg/disk): 32 mm
Inhibition halo (mm) at the concentration (µg/disk) ([1]; strain 8, 0.01 µg/disk): 0 mm
Inhibition halo (mm) at the concentration (µg/disk) ([1]; strain 8, 0.1 µg/disk): 0 mm
Inhibition halo (mm) at the concentration (µg/disk) ([1]; strain 8, 1 µg/disk): 0 mm
Inhibition halo (mm) at the concentration (µg/disk) ([1]; strain 8, 10 µg/disk): 40 mm
Inhibition halo (mm) at the concentration (µg/disk) ([1]; strain 9, 0.01 µg/disk): 0 mm
Inhibition halo (mm) at the concentration (µg/disk) ([1]; strain 9, 0.1 µg/disk): 0 mm
Inhibition halo (mm) at the concentration (µg/disk) ([1]; strain 9, 1 µg/disk): 0 mm
Inhibition halo (mm) at the concentration (µg/disk) ([1]; strain 9, 10 µg/disk): 38 mm
Inhibition halo (mm) at the concentration (µg/disk) ([1]; strain 10, 0.01 µg/disk): 0 mm
Inhibition halo (mm) at the concentration (µg/disk) ([1]; strain 10, 0.1 µg/disk): 0 mm
Inhibition halo (mm) at the concentration (µg/disk) ([1]; strain 10, 1 µg/disk): 0 mm
Inhibition halo (mm) at the concentration (µg/disk) ([1]; strain 10, 10 µg/disk): 37 mm
MIC50 [2]: 0.12 µg/mL (≈ 0.701 µM)
MIC90 [2]: 0.25 µg/mL (≈ 1.46 µM)
MIC range [2]: 0.015 to 0.25 µg/mL
MIC ([2]; strain 1): 0.25 µg/mL (≈ 1.46 µM)
MIC ([2]; strain 2): 0.06 µg/mL (≈ 0.351 µM)
MIC ([2]; strain 3): 0.25 µg/mL (≈ 1.46 µM)
MIC ([2]; strain 4): 0.25 µg/mL (≈ 1.46 µM)
MIC ([2]; strain 5): 0.015 µg/mL (≈ 0.0876 µM)
MIC ([2]; strain 6): 0.12 µg/mL (≈ 0.701 µM)
MIC ([2]; strain 7): 0.25 µg/mL (≈ 1.46 µM)
MIC ([2]; strain 8): 0.25 µg/mL (≈ 1.46 µM)
MIC ([2]; strain 9): 0.12 µg/mL (≈ 0.701 µM)
MIC ([2]; strain 10): 0.12 µg/mL (≈ 0.701 µM)
